Data: patent US20140296146A1, “Thermostable Inhibitors of Activation of the Blood Clotting System Through Contact with Foreign Surfaces” (Synapse B.V., priority 2011, published 2014)
Where a SMILES comes first, the peptide text is derived from it. Bridges are numbered along the chain shown (N, C = ends).

Key:
h-FXIIa [1] = target: T1, h-FXIIa (Homo sapiens, UniProt P00748); assay: Effect of inhibitors on hydrolysis of S2302 by h-FXIIa; type: biochemical
T1 construct: purchased Enzyme Research Laboratories FXIIa 1212A
T1 sequence (P00748 373-615 limits assumed): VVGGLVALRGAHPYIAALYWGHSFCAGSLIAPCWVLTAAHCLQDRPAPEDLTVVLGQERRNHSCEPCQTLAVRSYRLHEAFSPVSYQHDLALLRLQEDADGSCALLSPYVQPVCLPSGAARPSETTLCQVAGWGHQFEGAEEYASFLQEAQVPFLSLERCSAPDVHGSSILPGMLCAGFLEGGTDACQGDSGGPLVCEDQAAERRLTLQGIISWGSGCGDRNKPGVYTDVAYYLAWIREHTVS
T1 sequence (P00748 20-372 partner limits assumed): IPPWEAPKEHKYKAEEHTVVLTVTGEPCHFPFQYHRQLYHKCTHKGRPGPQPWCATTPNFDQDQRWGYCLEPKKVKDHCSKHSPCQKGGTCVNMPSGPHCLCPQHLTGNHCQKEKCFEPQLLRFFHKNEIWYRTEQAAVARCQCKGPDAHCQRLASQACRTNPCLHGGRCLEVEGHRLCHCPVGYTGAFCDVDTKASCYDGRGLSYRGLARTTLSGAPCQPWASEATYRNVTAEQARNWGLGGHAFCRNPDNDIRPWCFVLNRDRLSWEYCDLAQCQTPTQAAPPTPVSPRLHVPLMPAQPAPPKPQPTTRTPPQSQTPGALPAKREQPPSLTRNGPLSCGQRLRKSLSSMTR
Method: (§1) Materials • S2302 From Chromogenic, lot # N0398718 SEQ0860, exp. date 2012-07. Water added on 7 Oct. […] On 3 Aug. […] Product code FXIIa 1212A, lot #FXIIa 2520PL. Bottle with 0.5 mg was reconstituted with 370 μl pure water. […] Buffer 4 mM NaAc, 150 mM NaCl (pH 5.3). Preparation was divided into 20 μl amounts and frozen at −80° C. • Hepes735 140 mM NaCl, 20 mM Hepes, 0.02% NaN3 (pH 7.35). • BSA5 Hepes735+5 mg/ml BSA. • CTI Prepared on 17 Dec. 2004, 0.141 mg/ml, i.e. 0.141/12028=11.7*10^−6 M (11.7 μM). One portion was thawed and divided into 3 parts. Part 1 was frozen at −80° C.; part 2 was kept at RT; and part 3 was incubated 30 min at 95° C. and then kept at RT.
(§2) Stock FXIIa was diluted 700× in BSA5. The inhibitor was diluted in BSA5 as indicated. Wells contained 70 μl diluted FXIIa (5 nM final), 70 μl inhibitor and 20 μl S2302 (475 or 462.5 μM final). The reaction was started after 5 min heating on the heating plate with S2302. Filters 405 nm and 490 nm reference. Found mΔA/min was multiplied by 2.14 to get the figure for a 1 cm path.
The residual activity (V) was fitted against the PTI concentration with equation:
(§3) V=(E+(sqrt(Ê2+2*E*(Ki−I)+Î2+2*I*Ki+Kî2)−E−I−Ki)/2)*kcat*S/(Km+S)
(§4) in which E=[FXIIa], Ki is the dissociation constant, I=[Inhibitor], kcat and Km are Michaelis constants and S=[S2302].

contact activation = assay: Thrombin generation (CAT) in platelet poor plasma contact activated with kaolin; type: biochemical, human; details: concentration that prolongs clotting time of kaolin contact activated plasma four times
Method: Thrombin generation was carried out according to WO2003/093831.
Following a double centrifugation at 2500×g for 15 min at room temperature, platelet poor plasma (PPP) was collected from the upper half volume of plasma supernatant, quick frozen and stored at −80° C. The absence of platelet and leucocyte in PPP was checked with an ADVIA 120 counter (Bayer Diagnostics, NY, USA).
Recombinant human tissue factor Innovin® was obtained from Dade Behring (Marburg, Germany) and used at a final concentration of 0.5 pM in PRP and 1 or 5 pM in PPP samples. The phospholipid vesicles used at a final concentration of […] were obtained from Avanti Polar Lipids (Alabaster, Ala., USA) and consisted of 20 mol % phosphatidylserine (PS), 20 mol % phosphatidylethanolamine (PE) and 60 mol % phosphatidylcholine (PC) and were prepared by extrusion method (9,10). Kaolin light (hydrated aluminium silicate) was obtained from Baker Harrison ltd, (Ilford, UK).
Hepes-buffered saline contained 20 mM Hepes (Sigma Aldrich, l'Ile d'Abeau Chesnes, France), 140 mM NaCl and 5 mg/mL bovine serum albumin (BSA) (Euromedex, Souffelweyersheim, France), pH 7.35. This buffer was stored at −20° C. until use. A fresh mixture of fluorogenic substrate and CaCl2 was prepared before each experiment. Fluorogenic substrate, Z-Gly-Gly-Arg-AMC, was obtained from Bachem (Bubendorf, Switzerland). The mixture of fluorogenic substrate 2.5 mM and CaCl2 0.1 M was prepared using buffer containing Hepes 20 mM and 60 mg/mL BSA, pH 7.35. The Calibrator with the activity of 600 nM human thrombin was obtained from Thrombinoscope BV (Maastricht, The Netherlands). Transparent, round bottom Greiner microtiter plates (Greiner ref 65204, Poitiers, France) were used.
Thrombin generation was measured using Calibrated Automated Thrombography (CAT) according to the methodology of WO2003/093831 and a 96-well plate fluorometer (Fluoroscan Ascent Reader, Thermolab systems OY, Helsinki, Finland) equipped with a 390/460 nm filter set. Briefly, 80 μL of plasma is dispensed into the wells of round-bottom 96 well-microtiter plates. 20 μL of a mixture containing tissue factor and phospholipids is added to the PPP sample; alternatively, in order to obtain contact activation, the citrated plasma is preincubated for at least 10 min with 1 mg/ml of Kaolin light. The starting reagent (20 μL per well) contains fluorogenic substrate and CaCl2. […] The most important parameters that can be derived from CAT are lag time, endogenous thrombin potential corresponding to the area under the CAT curve, peak height of thrombin and time to peak.

h-FXIIa [2] = target: T1, h-FXIIa; assay: Stability of CTI, PTI and TICA at RT and at 95° C., read as inhibition of h-FXIIa; type: physicochemical
Method: as §1, with “Part 1 was frozen at −80° C.; part 2 was kept at RT; and part 3 was incubated 30 min at 95° C. and then kept at RT.” left out
as §2, with “ΔmA/min” for “mΔA/min”
The residual activity (V) was fitted against the inhibitor concentration with equation:
as §3, §4
To calculate the concentration of I the equation I=x·(x−E−Ki)/(x−E) was used. In this equation is I the calculated inhibitor concentration, x=the residual activity of FXIIa (free FXIIa), E the total FXIIa concentration (=9.33 nM), and Ki the dissociation or inhibitor constant.

[3] = ki F.XIIa (ng/ml), Before heating

| SMILES | Ki (h-FXIIa [1]; Ki, Table 2, inhibitory activity of different polypeptides) [nM] | Ki (h-FXIIa [1]; [3]) [nM] | 4 × lag-time (ng/ml) (contact activation; After heating) [ng/mL] | 4 × lag-time (μM) (contact activation; After heating) [µM] | 4 × lag-time (ng/ml) (contact activation; Before heating) [ng/mL] | 4 × lag-time (μM) (contact activation; Before heating) [µM] | Res. Act. (%) (h-FXIIa [2]; inhibitor 30 min 95° C.) | Res. Act. (%) (h-FXIIa [2]; inhibitor at RT during 72 hrs) | Res. Act. (%) (h-FXIIa [2]; inhibitor kept at −80° C.) | Ki (h-FXIIa [1]; ki F.XIIa (nM), Before heating) [nM] |
| --- | --- | --- | --- | --- | --- | --- | --- | --- | --- | --- |
| CC[C@H](C)[C@@H]1NC(=O)[C@H](CCCNC(=N)N)NC(=O)[C@@H]2CCCN2C(=O)[C@@H](NC(=O)[C@@H](NC(=O)[C@@H](N)CCCNC(=N)N)C(C)C)CSSC[C@@H]2NC(=O)[C@H](CCC(=O)O)NC(=O)[C@H](C)NC(=O)[C@H](CC(C)C)NC(=O)[C@@H]3CSSC[C@@H](C(=O)NCC(=O)O)NC(=O)[C@H](Cc4ccc(O)cc4)NC(=O)CNC(=O)[C@H](Cc4c[nH]cn4)NC(=O)[C@H](CCC(=O)O)NC(=O)[C@H](CC(C)C)NC(=O)[C@H](CSSC[C@H](NC(=O)[C@H](CCC(=O)O)NC(=O)[C@H](CCSC)NC(=O)[C@H](CC(C)C)NC1=O)C(=O)N[C@@H](CCCCN)C(=O)N[C@@H](CCCCN)C(=O)N[C@@H](CC(=O)O)C(=O)N[C@@H](CO)C(=O)N[C@@H](CC(=O)O)C(=O)N3)NC(=O)[C@H](C(C)C)NC2=O [TICA2] (H-RVCPRILMECKKDSDCLAECVCLEHGYCG-OH; disulfide 3-20, 10-22, 16-28 (inferred); N-terminus and C-terminus assumed) | 109 | 109 | 31.9 | 9.8 | 31.1 | 9.6 | 99 | 105 | 100 | – |
| CC[C@H](C)[C@@H]1NC(=O)[C@@H]2CSSC[C@H](NC(=O)[C@@H](NC(=O)[C@@H](N)CCCNC(=N)N)C(C)C)C(=O)N3CCC[C@H]3C(=O)N[C@@H](CCCCN)C(=O)N[C@@H]([C@@H](C)CC)C(=O)N[C@@H](CC(C)C)C(=O)N[C@@H](CCSC)C(=O)N[C@@H](CCC(=O)O)C(=O)N[C@H]3CSSC[C@H](NC1=O)C(=O)N[C@@H](CC(C)C)C(=O)N[C@@H](CCC(=O)O)C(=O)N[C@@H](Cc1c[nH]cn1)C(=O)NCC(=O)N[C@@H](Cc1ccc(O)cc1)C(=O)N[C@H](C(=O)NCC(=O)O)CSSC[C@H](NC(=O)[C@H](CC(=O)O)NC(=O)[C@H](CO)NC(=O)[C@H](CC(=O)O)NC(=O)[C@H](CCCCN)NC(=O)[C@H](CCCCN)NC3=O)C(=O)N[C@@H](CC(C)C)C(=O)N[C@@H](C)C(=O)N[C@@H](CCC(=O)O)C(=O)N2 [TICA4] (H-RVCPKILMECKKDSDCLAECICLEHGYCG-OH; disulfide 3-20, 10-22, 16-28 (inferred); N-terminus and C-terminus assumed) | – | 1420 | 102.9 | 31.4 | 102.7 | 31.6 | 94 | 98 | 100 | 1420 |
